Laboratory results published in patent publication US9309248B2, “Azaindolines” (Hoffmann-La Roche Inc., priority 2012, dated 2016).

Tests used:
BIR2 domain of XIAP = molecular target: T1, BIR2 domain of XIAP (Homo sapiens, UniProt P98170, C202A/C213G); assay: TR-FRET assay for BIR2 (inhibition of binding of XIAP BIR2 domain to SMAC-derived Peptide A); conditions: 6x Histidine-tagged BIR2 domain (amino acids 124-240 of XIAP) 10 nM, Peptide A 20 nM
T1 construct: 6× Histidine-tagged BIR2 domain, corresponding to amino acids 124-240 of XIAP
Procedure, shortened: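 Inhibition of binding of the XIAP BIR2 domain (C202A/C213G) to biotinylated SMAC-derived Peptide A was measured. TR-FRET signal was read after 1 h at room temperature.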

BIR3 domain of XIAP = molecular target: T2, BIR3 domain of XIAP (Homo sapiens, UniProt P98170); assay: TR-FRET assay for BIR3 (inhibition of binding of XIAP BIR3 domain to SMAC-derived Peptide A); conditions: 6x Histidine-tagged BIR3 domain (amino acids 241-356 of XIAP) 10 nM, Peptide A 20 nM
T2 construct: BIR3 domain, corresponding to amino acids 241-356 of XIAP
Procedure, shortened: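 His6-tagged XIAP BIR3 (aa 241-356, 10 nM) was mixed with 20 nM biotinylated SMAC-derived peptide in 50 mM Tris-Cl pH 7.5, 100 mM NaCl, 1 mM DTT, 0.1 mg/mL BSA and incubated 45 min at 37 °C. Eu-streptavidin (1.5 nM) and APC anti-His (15 nM) were added, with TR-FRET read 1 h later at RT. IC50 came from % inhibition over 10 serial concentrations.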

T2 sequence (P98170 with tags, fused parts or gaps): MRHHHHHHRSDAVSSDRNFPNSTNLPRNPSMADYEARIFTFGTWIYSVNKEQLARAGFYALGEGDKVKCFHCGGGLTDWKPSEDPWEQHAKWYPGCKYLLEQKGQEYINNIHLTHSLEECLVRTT
T1 sequence (P98170 with tags, fused parts or gaps C202A/C213G): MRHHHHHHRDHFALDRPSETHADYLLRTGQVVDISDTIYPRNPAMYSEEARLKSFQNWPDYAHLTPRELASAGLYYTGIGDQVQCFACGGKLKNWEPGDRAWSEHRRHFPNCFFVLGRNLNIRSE

| IC50 (BIR2 domain of XIAP) | IC50 (BIR3 domain of XIAP) | Structure (SMILES) |
| --- | --- | --- |
| 35.1 nM | > 54800 nM | CN[C@@H](C)C(=O)N[C@H](C(=O)N1c2ncccc2C[C@H]1C(=O)Nc1ccc(C(=O)N(C)C)cc1F)C(C)C [Example 62, (S)-1-[(S)-3-Methyl-2-((S)-2-methylamino-propionylamino)-butyryl]-2,3-dihydro-1H-pyrrolo[2,3-b]pyridine-2-carboxylic acid (4-dimethylcarbamoyl-2-fluoro-phenyl)-amide] |
| 32 nM | > 54800 nM | CN[C@@H](C)C(=O)N[C@H](C(=O)N1c2ncccc2C[C@H]1C(=O)Nc1ccc(Br)cc1F)C(C)C [Example 63, (S)-1-[(S)-3-Methyl-2-((S)-2-methylamino-propionylamino)-butyryl]-2,3-dihydro-1H-pyrrolo[2,3-b]pyridine-2-carboxylic acid (4-bromo-2-fluoro-phenyl)-amide] |
| 59.6 nM | > 54800 nM | CNC(=O)c1ccc(NC(=O)[C@@H]2Cc3cccnc3N2C(=O)[C@@H](NC(=O)[C@H](C)NC)C(C)C)c(F)c1 [Example 64, (S)-1-[(S)-3-Methyl-2-((S)-2-methylamino-propionylamino)-butyryl]-2,3-dihydro-1H-pyrrolo[2,3-b]pyridine-2-carboxylic acid (2-fluoro-4-methylcarbamoyl-phenyl)-amide] |
| 35.1 nM | > 54800 nM | CN[C@@H](C)C(=O)N[C@H](C(=O)N1c2ncccc2C[C@H]1C(=O)Nc1ccc(F)cc1F)C(C)C [Example 65, (S)-1-[(S)-3-Methyl-2-((S)-2-methylamino-propionylamino)-butyryl]-2,3-dihydro-1H-pyrrolo[2,3-b]pyridine-2-carboxylic acid (2,4-difluoro-phenyl)-amide] |
| 496 nM | > 54800 nM | CN[C@@H](C)C(=O)N[C@H](C(=O)N1c2ncccc2C[C@H]1C(=O)Nc1nc(C)cs1)C(C)C [Example 66, (S)-1-[(S)-3-Methyl-2-((S)-2-methylamino-propionylamino)-butyryl]-2,3-dihydro-1H-pyrrolo[2,3-b]pyridine-2-carboxylic acid (4-methyl-thiazol-2-yl)-amide] |
| 92.6 nM | > 54800 nM | CN[C@@H](C)C(=O)N[C@H](C(=O)N1c2ncccc2C[C@H]1C(=O)Nc1ncc(C)s1)C(C)C [Example 67, (S)-1-[(S)-3-Methyl-2-((S)-2-methylamino-propionylamino)-butyryl]-2,3-dihydro-1H-pyrrolo[2,3-b]pyridine-2-carboxylic acid (5-methyl-thiazol-2-yl)-amide] |
| 105 nM | > 54800 nM | CN[C@@H](C)C(=O)N[C@H](C(=O)N1c2ncccc2C[C@H]1C(=O)Nc1ccncc1F)C(C)C [Example 69, (S)-1-[(S)-3-Methyl-2-((S)-2-methylamino-propionylamino)-butyryl]-2,3-dihydro-1H-pyrrolo[2,3-b]pyridine-2-carboxylic acid (3-fluoro-pyridin-4-yl)-amide] |
| 21.5 nM | > 54800 nM | CN[C@@H](C)C(=O)N[C@H](C(=O)N1c2ncccc2C[C@H]1C(=O)Nc1c(F)cccc1Cl)C(C)C [Example 70, (S)-1-[(S)-3-Methyl-2-((S)-2-methylamino-propionylamino)-butyryl]-2,3-dihydro-1H-pyrrolo[2,3-b]pyridine-2-carboxylic acid (2-chloro-6-fluoro-phenyl)-amide] |
| 19.2 nM | > 54800 nM | CN[C@@H](C)C(=O)N[C@H](C(=O)N1c2ncccc2C[C@H]1C(=O)Nc1c(C)cccc1Cl)C(C)C [Example 71, (S)-1-[(S)-3-Methyl-2-((S)-2-methylamino-propionylamino)-butyryl]-2,3-dihydro-1H-pyrrolo[2,3-b]pyridine-2-carboxylic acid (2-chloro-6-methyl-phenyl)-amide] |
| 13.7 nM | > 54800 nM | CN[C@@H](C)C(=O)N[C@H](C(=O)N1c2ncccc2C[C@H]1C(=O)Nc1c(Cl)cc(Cl)cc1Cl)C(C)C [Example 72, (S)-1-[(S)-3-Methyl-2-((S)-2-methylamino-propionylamino)-butyryl]-2,3-dihydro-1H-pyrrolo[2,3-b]pyridine-2-carboxylic acid (2,4,6-trichloro-phenyl)-amide] |
| 69.1 nM | > 54800 nM | CN[C@@H](C)C(=O)N[C@H](C(=O)N1c2ncccc2C[C@H]1C(=O)Nc1c(F)cccc1C(F)(F)F)C(C)C [Example 73, (S)—N-(2-fluoro-6-(trifluoromethyl)phenyl)-1-((S)-3-methyl-2-((S)-2-(methylamino)propanamido)butanoyl)-2,3-dihydro-1H-pyrrolo[2,3-b]pyridine-2-carboxamide] |
| 16.6 nM | > 54800 nM | CN[C@@H](C)C(=O)N[C@H](C(=O)N1c2ncccc2C[C@H]1C(=O)Nc1c(Cl)cccc1Cl)C(C)C [Example 74, (S)-1-[(S)-3-Methyl-2-((S)-2-methylamino-propionylamino)-butyryl]-2,3-dihydro-1H-pyrrolo[2,3-b]pyridine-2-carboxylic acid (2,6-dichloro-phenyl)-amide] |
| 57.5 nM | > 54800 nM | CN[C@@H](C)C(=O)N[C@H](C(=O)N1c2ncccc2C[C@H]1C(=O)Nc1c(Cl)cccc1C(F)(F)F)C(C)C [Example 75, (S)-1-[(S)-3-Methyl-2-((S)-2-methylamino-propionylamino)-butyryl]-2,3-dihydro-1H-pyrrolo[2,3-b]pyridine-2-carboxylic acid (2-chloro-6-trifluoromethyl-phenyl)-amide] |
| 353 nM | > 54800 nM | CCN[C@@H](C)C(=O)N[C@H](C(=O)N1c2ncccc2C[C@H]1C(=O)Nc1ccccc1)C1CCCCC1 [Example 76, (S)-1-[(S)-2-Cyclohexyl-2-((S)-2-ethylamino-propionylamino)-acetyl]-2,3-dihydro-1H-pyrrolo[2,3-b]pyridine-2-carboxylic acid phenylamide] |
| 46.2 nM | > 54800 nM | CCN[C@@H](C)C(=O)N[C@H](C(=O)N1c2ncccc2C[C@H]1C(=O)Nc1c(F)cccc1F)C(C)C [Example 77, (S)-1-[(S)-2-((S)-2-Ethylamino-propionylamino)-3-methyl-butyryl]-2,3-dihydro-1H-pyrrolo[2,3-b]pyridine-2-carboxylic acid (2,6-difluoro-phenyl)-amide] |
| 14.2 nM | > 54800 nM | CC[C@H](NC)C(=O)N[C@H](C(=O)N1c2ncccc2C[C@H]1C(=O)Nc1c(F)cccc1F)C(C)C [Example 78, (S)-1-[(S)-3-Methyl-2-((S)-2-methylamino-butyrylamino)-butyryl]-2,3-dihydro-1H-pyrrolo[2,3-b]pyridine-2-carboxylic acid (2,6-difluoro-phenyl)-amide] |
| > 54800 nM | > 54800 nM | CN[C@@H](C)C(=O)N[C@H](C(=O)N1c2ncccc2C[C@@H]1C(=O)Nc1ccccc1)C1CCCCC1 [Example 79, (R)-1-[(S)-2-Cyclohexyl-2-((S)-2-methylamino-propionylamino)-acetyl]-2,3-dihydro-1H-pyrrolo[2,3-b]pyridine-2-carboxylic acid phenylamide] |
| 117 nM | > 54800 nM | CN[C@@H](C)C(=O)N[C@H](C(=O)N1c2ncccc2C[C@H]1C(=O)Nc1ccccc1)C1CCCCC1 [Example 80, (S)-1-[(S)-2-Cyclohexyl-2-((S)-2-methylamino-propionylamino)-acetyl]-2,3-dihydro-1H-pyrrolo[2,3-b]pyridine-2-carboxylic acid phenylamide] |
| 10400 nM | > 54800 nM | CC[C@H](NC)C(=O)N[C@H](C(=O)N1c2ncccc2C[C@@H]1C(=O)Nc1ccccc1)C1CCCCC1 [Example 81, (R)-1-[(S)-2-Cyclohexyl-2-((S)-2-methylamino-butyrylamino)-acetyl]-2,3-dihydro-1H-pyrrolo[2,3-b]pyridine-2-carboxylic acid phenylamide] |
| 105 nM | > 54800 nM | CC[C@H](NC)C(=O)N[C@H](C(=O)N1c2ncccc2C[C@H]1C(=O)Nc1ccccc1)C1CCCCC1 [Example 82, 1-[(S)-2-Cyclohexyl-2-((S)-2-methylamino-butyrylamino)-acetyl]-2,3-dihydro-1H-pyrrolo[2,3-b]pyridine-2-carboxylic acid phenylamide] |
| 52.8 nM | > 54800 nM | [2H]C([2H])([2H])N[C@@H](CC)C(=O)N[C@H](C(=O)N1c2ncccc2C[C@H]1C(=O)Nc1ccccc1)C1CCCCC1 [Example 83, 1-[(S)-2-Cyclohexyl-2-((S)-2-(d3-methyl)amino-butyrylamino)-acetyl]-2,3-dihydro-1H-pyrrolo[2,3-b]pyridine-2-carboxylic acid phenylamide] |
| 69.1 nM | > 54800 nM | CC[C@H](NC)C(=O)N[C@H](C(=O)N1c2ncccc2C[C@H]1C(=O)Nc1ccccc1)C(C)C [Example 85, (S)-1-[(S)-3-Methyl-2-((S)-2-methylamino-butyrylamino)-butyryl]-2,3-dihydro-1H-pyrrolo[2,3-b]pyridine-2-carboxylic acid phenylamide] |
| 65.6 nM | > 54800 nM | [2H]C([2H])([2H])N[C@@H](CC)C(=O)N[C@H](C(=O)N1c2ncccc2C[C@H]1C(=O)Nc1ccccc1)C(C)C [Example 86, (S)-1-[(S)-3-Methyl-2-((S)-2-(d3-methyl)amino-butyrylamino)-butyryl]-2,3-dihydro-1H-pyrrolo[2,3-b]pyridine-2-carboxylic acid phenylamide] |
